Laboratory results from patent publication US8163804B2 (priority 2005, dated 2012).
Like-named read-outs stand apart in the source and are kept apart here.

Tests used:
[1] = test system: Green Peach Aphid (Myzus persicae); type: in vivo; conditions: 3 ppm, foliar spray on eggplant, 5 days after spraying
[2] = test system: Resistant Cotton Melon Aphid (Aphis gossypii); type: in vivo; conditions: 3 ppm, foliar spray on cucumber, 5 days after spraying
[3] = test system: Small Brown Planthopper (Laodelphax striatellus); experiment: Insecticidal test on small brown planthopper, sprayed rice seedlings, mortality after 6 days; type: in vivo; conditions: 3 ppm, sprayed rice seedlings, 6 days after treatment
Protocol: Insecticidal Test on Small Brown Planthopper (Laodelphax striatellus)
A liquid chemical which was diluted and prepared to the prescribed concentration was sprayed on rice seedlings (cultivar: koshihikari), air-dried, and then 10 three-stage insects of Laodelphax striatellus were put into a glass test tube having a diameter of 3 cm and a height of 10 cm along with the seedlings. The test tube was cotton plugged. After 6 days from the treatment, the number of surviving insects was examined and the mortality was calculated (two replications of 10 insects per plot).

[4] = test system: 2-spotted Spider Mite (Tetranychus urticae); experiment: Insecticidal test on 2-spotted spider mite, kidney bean leaf disc with eggs, hatchability of larvae after 6 days; type: in vivo; conditions: 50 ppm; 6 days after spraying
Protocol: Insecticidal Test on 2-spotted Spider Mite (Tetranychus urticae)
A plastic cup having a diameter of 8 cm was filled with water and covered by a lid with a hole having a diameter of 1 cm. Absorbent cotton was put on the top of the lid and dropped into water from the lid such that the absorbent cotton was always in a wet state due to a capillary phenomenon. A leaf disc having a diameter of 2 cm was prepared with primary leaves of kidney beans (cultivar: Green top) and placed on the aforementioned absorbent cotton. 4 adult female insects of Tetranychus urticae were inoculated thereon. Next day, the adult female insects were removed, and then the number of insect egg was examined. A liquid chemical which was prepared to the prescribed concentration was sprayed by using a vertical sprayer. After spraying, the resulting cup was allowed to stand in an isothermal chamber maintained at 25 degree centigrade. After 6 days from spraying, the number of hatched larvae that survived on the leaf disc was examined and the hatchability of larvae was calculated (two replications of one concentration per chemical).

[5] = test system: Tiger Moth (Trichoplusia ni); experiment: Insecticidal test on tiger moth, cabbage leaf dip, mortality after 6 days; type: in vivo; conditions: 0.5 ppm; 6 days after treatment
Protocol: Insecticidal Test on Tiger Moth (Trichoplusia ni)
Cut leaves of cabbages (cultivar: shiki-kaku) were immersed in a liquid chemical which was diluted and prepared to the prescribed concentration for 30 seconds, air-dried, and then put into a plastic vessel having a diameter of 9 cm. Each of 10 second-stage insects of Trichoplusia ni was inoculated and the resulting vessel was allowed to stand in an isothermal chamber maintained at 25 degree centigrade. After 6 days from the treatment, the number of surviving insects was examined and the mortality was calculated (two replications of 10 insects per plot).

[6] = test system: Common Straight Swift Butterfly (Parnara guttata); experiment: Control test on common straight swift butterfly of paddy rice, powder spray, number of insects after 20 days (Test Example 8); type: in vivo; conditions: 20 gai/10a; 20 days after spraying
[7] = test system: Rice Blast (Pyricularia oryzae); type: in vivo; conditions: in vivo
[8] = test system: Common Straight Swift Butterfly (Parnara guttata); experiment: Control test on common straight swift butterfly of paddy rice, powder spray, number of insects after 20 days (Test Example 9); type: in vivo; conditions: 20 gai/10a; 20 days after spraying
Excerpt: (§1) Control Test on Common Straight Swift Butterfly (Parnara guttata) and Sheath Blight (Rhizoctonia solani) of Paddy Rice
(§2) A powder of a prescribed amount was sprayed on rice (cultivar: koshihikari) after 70 days from the transplantation (middle of May) Leaves on which Parnara guttata was parasitic before spraying were eliminated. After 20 days from spraying, the number of insects was examined for 100 stumps in each plot. Furthermore, 7 days before spraying, Rhizoctonia solani cultured on a bran medium was inoculated into the base of the plant. After 30 days from spraying, the number of infected stumps was examined for 100 stumps in each plot and the rate of infected stumps was calculated. In the Table, gai represents the amount of active ingredients (g).

[9] = test system: Sheath Blight (Rhizoctonia solani); experiment: Control test on sheath blight of paddy rice, powder spray, rate of infected stumps after 30 days; type: in vivo; conditions: 20 gai/10a; 30 days after spraying
Excerpt: as §1, §2

[10] = test system: Oriental Fruit Moth (Grapholita molesta); experiment: Control test on oriental fruit moth of pear, spray, rate of infected fruit after 40 days; type: in vivo; conditions: 50 ppm; 40 days after spraying
Protocol: (§3) Control Test on Oriental Fruit Moth (Grapholita molesta) and Scab (Venturia nashicola) of Pear
(§4) A liquid chemical which was prepared to the prescribed concentration was sufficiently sprayed on 17-year-old pears (cultivar: Hosui) (early June). After 40 days from spraying, the number of infected fruits due to Grapholita molesta was examined for all fruit in the plot, and the rate of infected fruit was calculated. Furthermore, after 14 days from spraying, infection of Venturia nashicola was examined by the degrees for optional 200 leaves in the plot and the severity index was calculated according to the following equation. Severity index=Z(number of infected leaves by the degrees×index)×100/(number of examined leaves×5)

[11] = test system: Scab (Venturia nashicola); experiment: Control test on scab of pear, spray, severity index after 14 days; type: in vivo; conditions: 50 ppm; 14 days after spraying
Protocol: as §3, §4

[12] = test system: Cucumber Moth (Diaphania indica); experiment: Insecticidal test on cucumber moth, sprayed cucumber leaves, mortality; type: in vivo; conditions: 10 ppm
Protocol: (§5) Insecticidal Test on Cucumber Moth (Diaphania indica) and Control Test on Powdery Mildew (Sphaerotheca fuliginea) of Cucumbers
(§6) A liquid chemical which was prepared to the prescribed concentration was sufficiently sprayed on cucumbers (cultivar: sagami-hanpaku) cultured in a greenhouse. After 7 days from spraying, leaves were cut off and put into a plastic cup (diameter: 10 cm, height: 10 cm) along with 5 of second-stage larvae of Diaphania indica, and the mortality was examined 4 days thereafter. Furthermore, 1 day after spraying, the leaves of cucumbers which were previously arranged to be infected by pathogen were uniformly wiped with Sphaerotheca fuliginea thereon using a paintbrush for inoculation and examined after 10 days thereafter. The area occupied by lesion per leaf of cucumber was examined in accordance with the following index, and the control value was calculated from the average severity index of each plot according to the following equation (two replications).

[13] = test system: Powdery Mildew (Sphaerotheca fuliginea); experiment: Control test on powdery mildew of cucumbers, spray, control value from severity index; type: in vivo; conditions: 10 ppm
Protocol: as §5, §6
Severity Index • 0: No lesion • 1: Lesion area was not more than 5% • 2: Lesion area was from 6 to 25% • 3: Lesion area was from 26 to 50% • 4: Lesion area was not less than 51% Control Value=(1−average severity in the treated plot/average severity in the untreated plot)×100

[14] = test system: Turnip Moth (Agrotis segetum); experiment: Control test on turnip moth of cabbage, soil treatment, rate of infected stumps after 7 days; type: in vivo; conditions: 100 gai/10a; 7 days after treatment
Protocol: (§7) Control Test on Turnip Moth (Agrotis segetum) and Clubroot (Plasmodiophora brassicae) of Cabbage due to Soil Treatment
(§8) A powder in a prescribed amount was mixed to soil and cabbages (cultivar: shiki-kaku) cultured on a cell medium were planted out. After 7 days from the treatment, the number of infected stumps due to Agrotis segetum was examined and the rate of infected stumps was calculated. Furthermore, after 60 days from the treatment, stumps were picked out, and lesion formation of Plasmodiophora brassicase was examined according to the degrees of severity. The control value was calculated from the average severity index of each plot according to the following equation. In the Table, gai represents the amount of active ingredients (g).

[15] = test system: Clubroot (Plasmodiophora brassicae); experiment: Control test on clubroot of cabbage, soil treatment, control value after 60 days; type: in vivo; conditions: 100 gai/10a; 60 days after treatment
Protocol: as §7, §8
Severity Index • 0: No clubroot attached • 1: Clubroot was attached at a portion of from 1 to 25% of the whole root • 2: Clubroot was attached at a portion of from 25 to 50% of the whole root • 3: Clubroot was attached at a portion of from 50 to 75% of the whole root • 4: Clubroot was attached at a portion of from 75% or more of the whole root Control Value=(1−average severity in the treated plot/average severity in the untreated plot)×100

[16] = test system: Small Brown Planthopper (Laodelphax striatellus); experiment: Control test on small brown planthopper, nursery box application of paddy rice, number of parasitic insects after 40 and 60 days; type: in vivo; conditions: 5 gai/box
Protocol: (§9) Control Test on Small Brown Planthopper (Laodelphax striatellus) and Rice Leafroller (Cnaphalocrocis medinalis) on Nursery Box Application of Paddy Rice
(§10) Rice (cultivar: Nihonbare) cultured in a nursery box was treated with 50 g of a granule formulation per box, and then transplanted to the rice field. For the control effect against Laodelphax striatellus, the number of parasitic insects was examined for 30 stumps per plot after 40 days and 60 days from the transplantation. In addition, for the control effect against Cnaphalocrocis medinalis, the number of infected leaves was examined for 100 stumps per plot after 50 days from the transplantation, and the infected leaf rate was calculated. In the Table, gai represents the amount of active ingredients (g).

[17] = test system: Rice Leafroller (Cnaphalocrocis medinalis); experiment: Control test on rice leafroller, nursery box application of paddy rice, infected leaf rate after 50 days; type: in vivo; conditions: 5 gai/box; 50 days after transplantation
Protocol: as §9, §10

[18] = test system: Rice Blast (Pyricularia oryzae); type: in vivo; conditions: in vivo; remark: listed apart in the source
[19] = test system: Rice Striped Stem Borer (Chilo suppressalis); conditions: 5 gai/box

SMILES	Control rate (%) [1]	Control rate (%) [2]	Mortality (%) [3]	Hatchability of larvae (%) [4]	Mortality (%) [5]	Number (insects/100 stumps) [6]	Pyricularia oryzae Control value [7]	Number of insects (number/100 stumps) [8]	Rate of infected stumps (%) [9]	Grapholita molesta Infected fruit rate (%) [10]	Venturia nashicola Severity index [11]	Diaphania indica Mortality (%) [12]	Sphaerotheca fuliginea Control value [13]	Agrotis segetum Infected stump rate (%) [14]	Plasmodiophora brassicae Control value [15]	Laodelphax striatellus Number of parasitic insects/30 stumps ([16]; 40 days)	Laodelphax striatellus Number of parasitic insects/30 stumps ([16]; 60 days)	Cnaphalocrocis medinalis Infected leaf rate (%) [17]	Pyricularia oryzae Control value [18]	Chilo suppressalis Mortality (%) [19]
O=C(Nc1cccc(C(=O)Nc2c(Br)cc(C(F)(C(F)(F)F)C(F)(F)F)cc2SC(F)(F)F)c1)c1ccccc1 [Compound 210]	7%	12%	15%	80%	70%	1 insects/100 stumps	3	1 number/100 stumps	98%	1.7%	50.6	95%	0	2.8%	0					
Cc1cc(C(F)(C(F)(F)F)C(F)(F)F)cc(C)c1NC(=O)c1cccc(N(C)C(=O)c2cccnc2Cl)c1F [Compound 1245]	12%	15%	5%	85%	70%	2 insects/100 stumps	0	2 number/100 stumps	98%	2.8%	51.6	90%	0	2.8%	6	82 insects/30 stumps	140 insects/30 stumps	0.32%	0	95%
